Source: publication PMC10175918 (Communications Biology, 2023)
Like-named read-outs stand apart in the source and are kept apart here.

Assays:
Assay in all cases: TGFα-shedding assay-based GPCR screening with chimeric Gα subunit proteins
Assay type in all cases: cell-based
348 GPCRs [1] = target: T1, 348 GPCRs (Homo sapiens, UniProt P25105)
T1 construct: expressed in transfected cells; host or cells: HEK293A

348 GPCRs [2] = target: T2, 348 GPCRs (Homo sapiens, UniProt Q9HBW0); conditions: 10µM, Favipiravir 100μM
T2 construct: expressed in transfected cells; host or cells: HEK293A
T2 sequence (Q9HBW0 whole entry): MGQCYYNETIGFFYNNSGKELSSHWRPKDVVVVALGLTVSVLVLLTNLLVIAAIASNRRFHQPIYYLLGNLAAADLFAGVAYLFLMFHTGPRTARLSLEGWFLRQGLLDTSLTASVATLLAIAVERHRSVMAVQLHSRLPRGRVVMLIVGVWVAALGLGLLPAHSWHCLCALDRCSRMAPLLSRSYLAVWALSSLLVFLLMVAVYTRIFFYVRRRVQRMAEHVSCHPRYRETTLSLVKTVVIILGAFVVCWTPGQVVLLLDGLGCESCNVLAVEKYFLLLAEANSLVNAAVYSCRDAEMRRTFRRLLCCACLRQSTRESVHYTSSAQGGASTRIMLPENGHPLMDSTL

348 GPCRs [3] = target: 348 GPCRs (Homo sapiens, UniProt Q8IYL9); conditions: GPCR GPR65 (G protein-coupled receptor 65)
348 GPCRs (Homo sapiens, UniProt Q8IYL9), sequence (Q8IYL9 whole entry): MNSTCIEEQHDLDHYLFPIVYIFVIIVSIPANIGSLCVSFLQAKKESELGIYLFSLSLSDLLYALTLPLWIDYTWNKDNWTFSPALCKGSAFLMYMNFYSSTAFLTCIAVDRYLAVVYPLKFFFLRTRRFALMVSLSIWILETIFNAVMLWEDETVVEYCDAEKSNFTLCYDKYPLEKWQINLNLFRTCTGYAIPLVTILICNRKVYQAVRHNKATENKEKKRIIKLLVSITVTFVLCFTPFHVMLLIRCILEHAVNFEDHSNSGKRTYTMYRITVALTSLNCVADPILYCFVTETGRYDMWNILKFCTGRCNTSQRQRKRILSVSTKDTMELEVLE

348 GPCRs [4] = target: T3, 348 GPCRs (Homo sapiens, UniProt Q96RI8); conditions: 10µM, Favipiravir 100μM
T3 construct: expressed in transfected cells; host or cells: HEK293A
T3 sequence (Q96RI8 1-345): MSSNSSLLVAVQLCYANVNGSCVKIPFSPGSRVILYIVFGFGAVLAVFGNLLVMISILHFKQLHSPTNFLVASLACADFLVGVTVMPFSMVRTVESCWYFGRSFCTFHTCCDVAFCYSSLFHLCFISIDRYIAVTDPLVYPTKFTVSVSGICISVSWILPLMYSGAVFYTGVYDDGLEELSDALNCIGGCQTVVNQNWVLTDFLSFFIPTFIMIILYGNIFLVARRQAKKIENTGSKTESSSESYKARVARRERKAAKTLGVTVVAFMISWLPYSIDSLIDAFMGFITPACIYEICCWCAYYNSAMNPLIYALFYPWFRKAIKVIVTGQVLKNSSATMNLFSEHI

348 GPCRs [5] = target: T4, 348 GPCRs (Homo sapiens, UniProt P25116); conditions: 10µM, Favipiravir 100μM
T4 construct: expressed in transfected cells; host or cells: HEK293A
T4 sequence (P25116 22-425): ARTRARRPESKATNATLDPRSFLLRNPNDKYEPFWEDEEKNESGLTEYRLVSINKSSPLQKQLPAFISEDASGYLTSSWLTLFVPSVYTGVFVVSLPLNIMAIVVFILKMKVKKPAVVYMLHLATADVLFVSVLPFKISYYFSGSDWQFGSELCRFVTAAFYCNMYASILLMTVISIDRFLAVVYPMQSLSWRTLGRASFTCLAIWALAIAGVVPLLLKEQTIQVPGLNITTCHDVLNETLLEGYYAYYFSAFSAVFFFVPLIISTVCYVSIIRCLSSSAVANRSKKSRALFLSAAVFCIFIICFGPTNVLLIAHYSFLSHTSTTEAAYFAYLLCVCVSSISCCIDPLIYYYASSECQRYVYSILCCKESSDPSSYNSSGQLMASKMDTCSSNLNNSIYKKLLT

348 GPCRs [6] = target: T5, 348 GPCRs (Homo sapiens, UniProt P48146); conditions: 10µM, Favipiravir 100μM
T5 construct: expressed in transfected cells; host or cells: HEK293A
T5 sequence (P48146 whole entry): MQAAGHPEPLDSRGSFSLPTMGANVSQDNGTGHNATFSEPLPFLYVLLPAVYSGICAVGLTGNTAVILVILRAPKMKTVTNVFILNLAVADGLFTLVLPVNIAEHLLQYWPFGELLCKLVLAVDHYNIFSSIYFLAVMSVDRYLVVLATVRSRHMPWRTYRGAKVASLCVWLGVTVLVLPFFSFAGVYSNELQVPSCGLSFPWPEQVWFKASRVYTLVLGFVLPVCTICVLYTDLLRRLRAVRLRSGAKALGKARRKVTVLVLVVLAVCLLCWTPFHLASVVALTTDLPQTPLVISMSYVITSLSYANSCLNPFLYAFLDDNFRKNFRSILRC

348 GPCRs [7] = target: T6, 348 GPCRs (Homo sapiens, UniProt P23945); conditions: 10µM, Favipiravir 100μM
T6 construct: expressed in transfected cells; host or cells: HEK293A
T6 sequence (P23945 18-695): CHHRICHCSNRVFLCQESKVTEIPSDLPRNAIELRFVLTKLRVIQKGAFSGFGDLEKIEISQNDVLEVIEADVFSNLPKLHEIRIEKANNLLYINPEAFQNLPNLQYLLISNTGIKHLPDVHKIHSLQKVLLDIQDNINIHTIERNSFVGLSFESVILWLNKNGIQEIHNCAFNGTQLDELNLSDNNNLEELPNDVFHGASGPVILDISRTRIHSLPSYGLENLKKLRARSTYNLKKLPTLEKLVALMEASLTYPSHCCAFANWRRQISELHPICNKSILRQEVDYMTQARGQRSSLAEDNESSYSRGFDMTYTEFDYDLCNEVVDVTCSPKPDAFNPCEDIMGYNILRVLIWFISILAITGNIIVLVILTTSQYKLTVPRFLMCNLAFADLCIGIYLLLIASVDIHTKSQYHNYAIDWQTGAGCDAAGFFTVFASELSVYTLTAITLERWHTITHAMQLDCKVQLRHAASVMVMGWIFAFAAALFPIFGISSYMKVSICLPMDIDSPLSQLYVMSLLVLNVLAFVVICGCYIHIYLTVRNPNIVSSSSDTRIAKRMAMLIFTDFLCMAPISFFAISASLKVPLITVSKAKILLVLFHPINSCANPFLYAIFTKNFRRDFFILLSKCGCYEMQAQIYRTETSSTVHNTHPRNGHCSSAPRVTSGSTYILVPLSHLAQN

348 GPCRs [8] = target: T7, 348 GPCRs (Homo sapiens, UniProt P32249); conditions: EBI2 (G protein-coupled receptor 183 (Epstein-Barr Virus Induced Gene 2)); 10µM, Favipiravir 100μM
T7 construct: expressed in transfected cells; host or cells: HEK293A
T7 sequence (P32249 whole entry): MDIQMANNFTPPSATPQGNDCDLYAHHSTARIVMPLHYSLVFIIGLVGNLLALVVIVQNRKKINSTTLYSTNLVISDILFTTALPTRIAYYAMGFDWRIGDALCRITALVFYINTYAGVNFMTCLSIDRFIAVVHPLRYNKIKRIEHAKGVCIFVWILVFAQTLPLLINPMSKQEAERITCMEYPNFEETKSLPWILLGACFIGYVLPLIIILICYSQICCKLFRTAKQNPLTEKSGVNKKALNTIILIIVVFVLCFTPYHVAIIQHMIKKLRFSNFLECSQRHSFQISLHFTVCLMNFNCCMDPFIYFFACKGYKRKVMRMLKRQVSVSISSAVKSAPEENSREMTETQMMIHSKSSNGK

348 GPCRs [9] = target: 348 GPCRs (Homo sapiens, UniProt P07550); conditions: 10µM, Favipiravir 100μM
348 GPCRs (Homo sapiens, UniProt P07550), sequence (P07550 whole entry): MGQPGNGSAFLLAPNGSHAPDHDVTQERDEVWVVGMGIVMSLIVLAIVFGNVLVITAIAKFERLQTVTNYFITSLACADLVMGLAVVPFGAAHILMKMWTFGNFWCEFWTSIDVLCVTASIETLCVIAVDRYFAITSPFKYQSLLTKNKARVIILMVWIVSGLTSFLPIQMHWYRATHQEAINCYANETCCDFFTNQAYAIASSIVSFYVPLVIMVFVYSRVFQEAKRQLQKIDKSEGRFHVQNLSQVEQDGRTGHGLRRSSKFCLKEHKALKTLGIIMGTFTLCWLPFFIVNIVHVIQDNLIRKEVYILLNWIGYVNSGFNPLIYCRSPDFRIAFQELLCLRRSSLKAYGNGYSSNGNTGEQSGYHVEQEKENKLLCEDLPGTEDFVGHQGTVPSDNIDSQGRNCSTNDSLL

348 GPCRs [10] = target: T8, 348 GPCRs (Homo sapiens, UniProt O00155); conditions: 10µM, Favipiravir 100μM
T8 construct: expressed in transfected cells; host or cells: HEK293A
T8 sequence (O00155 whole entry): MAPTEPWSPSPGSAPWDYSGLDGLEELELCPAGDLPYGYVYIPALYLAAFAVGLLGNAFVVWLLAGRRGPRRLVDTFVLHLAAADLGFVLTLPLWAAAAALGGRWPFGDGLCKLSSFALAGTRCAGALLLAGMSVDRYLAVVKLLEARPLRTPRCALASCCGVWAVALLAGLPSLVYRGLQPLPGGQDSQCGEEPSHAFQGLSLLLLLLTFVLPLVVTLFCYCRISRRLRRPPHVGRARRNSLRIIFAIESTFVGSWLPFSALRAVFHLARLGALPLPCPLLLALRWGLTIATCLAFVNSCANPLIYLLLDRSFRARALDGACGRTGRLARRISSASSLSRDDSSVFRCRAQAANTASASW

348 GPCRs [11] = target: T9, 348 GPCRs (Homo sapiens, UniProt P28222); conditions: 10µM, Favipiravir 100μM
T9 construct: expressed in transfected cells; host or cells: HEK293A
T9 sequence (P28222 whole entry): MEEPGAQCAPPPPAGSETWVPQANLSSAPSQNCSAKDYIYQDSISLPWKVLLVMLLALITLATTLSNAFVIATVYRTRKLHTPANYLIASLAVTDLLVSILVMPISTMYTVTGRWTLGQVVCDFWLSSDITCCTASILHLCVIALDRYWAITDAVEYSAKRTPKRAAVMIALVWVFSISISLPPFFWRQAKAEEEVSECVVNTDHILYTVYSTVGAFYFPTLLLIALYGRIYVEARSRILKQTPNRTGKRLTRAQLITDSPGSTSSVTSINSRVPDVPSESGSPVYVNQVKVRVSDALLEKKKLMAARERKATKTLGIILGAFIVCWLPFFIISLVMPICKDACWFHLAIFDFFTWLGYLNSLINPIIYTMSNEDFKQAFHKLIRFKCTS

[12] = GPCR PAFR (platelet activating factor receptor), read-out: % GPCR activation compared to TPA
[13] = LPAR2 (lysophosphatidic acid receptor 2), read-out: % GPCR activation compared to TPA
[14] = TAAR6 (trace amine associated receptor 6), read-out: % GPCR activation compared to TPA
[15] = F2R (coagulation factor II (thrombin) receptor), read-out: % GPCR activation compared to TPA
[16] = NPBWR2 (neuropeptides B and W receptor 2), read-out: % GPCR activation compared to TPA
[17] = FSHR (follicle stimulating hormone receptor), read-out: % GPCR activation compared to TPA
[18] = ADRB2 (adrenoceptor beta 2, surface), read-out: % GPCR activation compared to TPA
[19] = GPR25 (G Protein-Coupled Receptor 25), read-out: % GPCR activation compared to TPA
[20] = 5-HT1B (5-hydroxytryptamine receptor 1B), read-out: % GPCR activation compared to TPA
[21] = read-out: % GPCR activation compared to TPA, GPCR PAFR (platelet activating factor receptor)
[22] = read-out: % GPCR activation compared to TPA, LPAR2 (lysophosphatidic acid receptor 2)
[23] = read-out: % GPCR activation compared to TPA, TAAR6 (trace amine associated receptor 6)
[24] = read-out: % GPCR activation compared to TPA, F2R (coagulation factor II (thrombin) receptor)
[25] = read-out: % GPCR activation compared to TPA, NPBWR2 (neuropeptides B and W receptor 2)
[26] = read-out: % GPCR activation compared to TPA, FSHR (follicle stimulating hormone receptor)
[27] = read-out: % GPCR activation compared to TPA, ADRB2 (adrenoceptor beta 2, surface)
[28] = read-out: % GPCR activation compared to TPA, GPR25 (G Protein-Coupled Receptor 25)
[29] = read-out: % GPCR activation compared to TPA, 5-HT1B (5-hydroxytryptamine receptor 1B)

T1 sequence (P25105 whole entry): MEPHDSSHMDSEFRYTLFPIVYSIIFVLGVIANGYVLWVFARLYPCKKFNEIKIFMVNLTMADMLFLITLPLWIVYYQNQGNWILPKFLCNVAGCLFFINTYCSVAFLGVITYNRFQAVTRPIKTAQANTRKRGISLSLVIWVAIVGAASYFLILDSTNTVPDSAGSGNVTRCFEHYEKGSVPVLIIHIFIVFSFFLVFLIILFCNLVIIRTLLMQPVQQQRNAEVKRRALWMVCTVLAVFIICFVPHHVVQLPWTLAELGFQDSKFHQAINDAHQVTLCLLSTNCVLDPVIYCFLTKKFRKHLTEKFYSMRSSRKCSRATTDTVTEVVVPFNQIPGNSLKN

activation at 10 µM (348 GPCRs [1]; [12]) | activation at 10 µM (348 GPCRs [2]; [13]) | activation at 100 µM (348 GPCRs [4]; [14]) | activation at 10 µM (348 GPCRs [5]; [15]) | activation at 10 µM (348 GPCRs [6]; [16]) | activation at 100 µM (348 GPCRs [7]; [17]) | % GPCR activation compared to TPA (348 GPCRs [8]) | activation at 10 µM (348 GPCRs [9]; [18]) | activation at 100 µM (348 GPCRs [10]; [19]) | activation at 100 µM (348 GPCRs [11]; [20]) | Structure (SMILES) | % GPCR activation compared to TPA (348 GPCRs [3]; 10µM) | activation at 10 µM (348 GPCRs [1]; [21]) | activation at 10 µM (348 GPCRs [2]; [22]) | activation at 100 µM (348 GPCRs [4]; [23]) | activation at 10 µM (348 GPCRs [5]; [24]) | activation at 10 µM (348 GPCRs [6]; [25]) | activation at 100 µM (348 GPCRs [7]; [26]) | activation at 10 µM (348 GPCRs [9]; [27]) | activation at 100 µM (348 GPCRs [10]; [28]) | activation at 100 µM (348 GPCRs [11]; [29]) | also measured
-1.62% | -0.123% | -1.31% | -1.57% | -1.66% | 1.25% | -1.471% | -0.409% | -1.73% | -3.77% | N#C[C@@]1(c2ccc3c(N)ncnn23)O[C@H](CO)[C@@H](O)[C@H]1O [GS441524] | -3.0793% |  |  |  |  |  |  |  |  |  | 
 | 1.47% | -1.51% | -2.55% | -4.53% | 3.61% | -1.156% | -1% | -2.15% | -3.2% | NC(=O)c1nc(F)cnc1O [favipiravir, 6-fluoro-3-hydroxy-2-pyrazinecarboxamide] |  |  |  |  |  |  |  |  |  |  | activation at 100 µM (348 GPCRs [1]; GPCR PAFR (platelet activating factor receptor), 100μM, read-out: % GPCR activation compared to TPA): -0.53%; % GPCR activation compared to TPA (348 GPCRs [3]; 100μM): 1.278%
-6.72% | 2.59% | -2.31% | -0.992% | -2.92% | 0.229% | -0.8417% | 0.263% | -2.16% | -0.835% | CC(C)C(=O)OC[C@H]1O[C@@H](n2ccc(NO)nc2=O)[C@H](O)[C@@H]1O [molnupiravir] | -8.376% |  |  |  |  |  |  |  |  |  | 

Structure (SMILES) | activation at 10 µM (348 GPCRs [1]; [12]) | activation at 10 µM (348 GPCRs [2]; [13]) | activation at 100 µM (348 GPCRs [4]; [14]) | activation at 10 µM (348 GPCRs [5]; [15]) | activation at 10 µM (348 GPCRs [6]; [16]) | activation at 100 µM (348 GPCRs [7]; [17]) | % GPCR activation compared to TPA (348 GPCRs [8]) | activation at 10 µM (348 GPCRs [9]; [18]) | activation at 100 µM (348 GPCRs [10]; [19]) | activation at 100 µM (348 GPCRs [11]; [20]) | % GPCR activation compared to TPA (348 GPCRs [3]; 10µM) | activation at 10 µM (348 GPCRs [1]; [21]) | activation at 10 µM (348 GPCRs [2]; [22]) | activation at 100 µM (348 GPCRs [4]; [23]) | activation at 10 µM (348 GPCRs [5]; [24]) | activation at 10 µM (348 GPCRs [6]; [25]) | activation at 100 µM (348 GPCRs [7]; [26]) | activation at 10 µM (348 GPCRs [9]; [27]) | activation at 100 µM (348 GPCRs [10]; [28]) | activation at 100 µM (348 GPCRs [11]; [29]) | also measured
CCC(CC)COC(=O)[C@H](C)N[P@](=O)(OC[C@H]1O[C@@](C#N)(c2ccc3c(N)ncnn23)[C@H](O)[C@@H]1O)Oc1ccccc1 [remdesivir] |  |  |  |  |  |  | 0.4815% |  |  |  | -1.387% | 6.57% | 1.11% | -0.419% | -1.45% | -4.48% | 2.23% | 1.06% | -2.29% | -0.255% | 
CC(C)OC(=O)[C@H](C)N[P@](=O)(OC[C@H]1O[C@@H](n2ccc(=O)[nH]c2=O)[C@](C)(F)[C@@H]1O)Oc1ccccc1 [sofosbuvir] |  |  |  |  |  |  | -0.7581% |  |  |  | -10.455% | -7.19% | 2.99% | -3.52% | -1.12% | -2.75% | 2.02% | 1.76% | -0.661% | -1% | 
